From patent US12721836B2, “Alpha-methyl-L-tryptophan as an orally active drug for treating or preventing metabolic conditions” (Texas Tech University System, priority 2021, dated 2026)
Entries after “also recorded” stand apart in the source; their conditions may differ.

How the values were obtained:
[1] = Body weight in wild type male mice on normal or high-fat diet; format: in vivo
Description: (§1) C57B16 mice and oblob (leptin-deficient) mice were from Jackson Laboratories (Bar Harbor, ME). Slc6a14-null mice (Slc6a14^y/− males and Slc6a14^−/− females) on C57BU/6 background were generated in Applicant's lab and have been used to assess the role of this transporter in breast cancer and colon cancer. Mice had free access to water and diet ad libitum. Age- and gender-matched mice were used in control groups (no treatment). Mice were fed a normal diet (ND) (50 IF/6F 5V5R, Labdiet, St. Louis, MO) or a high-fat diet (HFD; 55% calorie from fat) (TD93075; Teklad diets, Madison, WI). The protocol was approved by the Institutional Animal Care and Use Committee of the Texas Tech University Health Sciences Center, Lubbock, TX, USA (IACUC approval number: 15002 for breeding protocol and 18005 for experimental protocol).
Administration of α-methyltryptophan to wild type mice on a high-fat diet would make the mice gain more weight as we found in Slc6a14-null male mice. The results turned out to be quite the opposite. When exposed to the drug for 1 week (2 mg/ml in drinking water; DL-enantiomeric mixture, α-MT), untreated wild type male mice on a high-fat diet gained weight whereas mice exposed to the drug lost weight (FIG. 1B). Since the deletion of Slc6a14 increased the weight gain whereas administration of α-MT to wild type mice decreased the weight gain, the effect of the drug on the body weight has little to do with its ability to block the transporter.
Next, Applicant examined the effect of α-MLT on the body weight in WT C57BL/6 male mice on a normal diet or a high-fat diet (55% calories from fat). The drug was given in drinking water (1 mg/ml). Both with the normal diet and the high-fat diet, mice gained weight when not treated with α-MLT (FIGS. 2A-B). […] This weight-reducing effect was evident with both diets.
(§2) When the drug was withdrawn, mice began to gain weight (FIG. 2B). At 4-weeks of drug exposure, circulating levels of glucose and leptin were measured. Blood glucose was higher in control (i.e., untreated) mice on the high-fat diet than in those on the normal diet (FIGS. 2C-2D). The same was true with leptin levels, which correspond to fat content (FIGS. 2C-2D).

[2] = Body weight in Slc6a14-null male mice on high-fat diet (D- vs L-isomer); format: in vivo; conditions: Slc6a14-null male mice on HFD; 1 mg/ml in drinking water, one week
Description: as §1
Next, Applicant aimed to determine which isomer in the enantiomeric mixture of α-methyltryptophan elicited a weight-reducing effect. For this, Applicant used the Slc6a14-null male mice on a high-fat diet as a model of obesity. Applicant selected this mouse model of obesity for initial experiments because the weight-reducing effect of α-MT is independent of what the drug does to the transport function of Slc6a14.
Applicant administered the D- and L-isomers separately to these mice on a high-fat diet at a dose of 1 mg/ml in drinking water for one week. […]

[3] = Circulating glucose and leptin in wild type male mice; format: in vivo; conditions: WT male mice, ND or HFD (independent of diet); 4 weeks, 1 mg/ml in drinking water; 4-h fasting
Protocol: Animals were fasted for 4 h and blood was collected as described above. Blood samples were centrifuged at 1500×g for 20 min and the serum samples were collected and kept at −80° C. until analyzed. Leptin was measured using the mouse/rat Quantikine ELISA kit (MOB00B, R & D Systems, MN).
as §2
(§3) Applicant then performed glucose-tolerance test in control and α-MLT-treated (2-week treatment; 1 mg/ml in drinking water) mice which were fed the high-fat diet for 12 weeks. […] At the end of the experiment, mice were killed, and liver and abdominal fat pad were excised and weighed. Treatment with α-MLT reduced the weight of the liver and the abdominal fat (FIGS. 3C-D).

[4] = Intraperitoneal glucose tolerance test in wild type mice on high-fat diet; format: in vivo; conditions: WT mice fed HFD 12 weeks; 2-week treatment, 1 mg/ml in drinking water
Protocol: (§4) Intraperitoneal GTT was done in mice fasted for 4 h. Blood glucose was determined using the TRUE track blood glucose monitor (Trividia Health Inc, Fort Lauderdale, FL) at 0, 15, 30, 60, 90 and 120 min after i.p. injection of glucose (2 g/kg body weight).
as §3

[5] = Liver and abdominal fat pad weight in wild type mice on high-fat diet; format: in vivo; conditions: WT male mice on HFD; 1 mg/ml in drinking water
Protocol: as §3

[6] = Hepatic steatosis (Oil-red-O staining) in wild type mice on high-fat diet; format: in vivo; conditions: WT mice on HFD 14 weeks; treatment during last two weeks
Protocol: Liver tissue was excised and weighed immediately, snap-frozen in liquid nitrogen, and stored at −80° C. For Oil-red-O (ORO) staining, tissues were OCT embedded, frozen at −20° C., and cut, followed by staining. Slides made from formalin-fixed, paraffin-embedded liver blocks were stained with hematoxylin and eosin (H & E).
Wild type mice developed fatty liver when fed a high-fat diet for 14 weeks as evident from Oil-red-O staining of the liver sections for neutral lipids (FIG. 3E). […] In this experiment, mice were fed the high-fat diet for 12-weeks, after which the mice were divided into two groups, one with no α-MLT exposure and the other with α-MLT administration. The drug treatment was continued for two additional weeks, and all through the experiment, both groups were continuously fed the same high-fat diet.

[7] = Body weight and other parameters in wild type female mice; format: in vivo; conditions: 1 mg/ml in drinking water, 2 weeks
Protocol: The experiments described above were done with male mice. To see if α-MLT elicits a similar weight-loss effect in female mice, wild type female mice were exposed to α-MLT (1 mg/ml in drinking water) at 3 months of age. The untreated mice gained weight and α-MLT-exposed mice lost weight (FIG. 4A). At end of 2 weeks treatment, mice were killed and mammary fat pad and liver were excised and weighed. The weights of both tissues decreased in the treated mice (FIGS. 4B-C).

[8] = Body weight, food intake, glucose and glucose tolerance in oblob mice on normal diet; format: in vivo
Protocol: as §4
oblob mice are deficient in leptin and therefore obese even on a normal diet. […] Applicant used 12-week-old male oblob mice to evaluate the weight-reducing effect of α-MLT (1 mg/ml in drinking water). There was a gradual weight gain on a normal diet in control mice without the drug (FIG. 5A). In contrast, mice exposed to α-MLT lost weight. At the end of 3-week drug exposure, the reversibility of α-MLT effect was evaluated by withdrawing the drug. […] At the end of the three-week treatment with α-MLT, mice were killed and the weights of the liver and abdominal fat pad were determined.
Applicant also monitored food intake, blood glucose, and glucose tolerance in control mice and α-MLT-treated mice.

[9] = Serum metabolic panel (lipid profile, kidney and liver function) in wild type mice on high-fat diet; format: in vivo; conditions: WT mice on HFD, 1 mg/ml in drinking water, 4 weeks
Protocol: At the end of the experiment, mice were fasted for 4 h, and blood was collected via orbital sinus using local anesthesia proparacaine. Serum was prepared by centrifugation of the clotted blood, and used for metabolic panel. This was done at our Laboratory Animal Resources Center.
Applicant evaluated the serum profile for metabolites and enzymes to assess the impact of α-MLT (4 weeks treatment; 1 mg/ml in drinking water) in normal mice which were on the high-fat diet for three months prior to initiation of the drug treatment. These tests were designed to assess the function of the kidneys and liver.

[10] = rats; orally 150 mg/kg per day; cited from earlier work
[11] = oblob male mice on normal diet, 1 mg/ml in drinking water, three weeks
[12] = oblob mice on normal diet, three-week treatment

Question: With `CC(N)(Cc1c[nH]c2ccccc12)C(=O)O` (racemic) [α-MT, α-methyl-DL-tryptophan] as the molecule, how does the body weight gain/loss ([1]; wild type male mice on HFD, 2 mg/ml in drinking water, 1 week) read?
Answer: lost weight

Question: For `C[C@@](N)(Cc1c[nH]c2ccccc12)C(=O)O` [α-MDT, α-methyl-D-tryptophan, reference compound], which “weight-reducing effect (body weight)” value [2] is on record?
Answer: negligible effect

Question: Which “onset of weight-reducing effect” value ([1]; 1 mg/ml in drinking water) does the source give for `C[C@](N)(Cc1c[nH]c2ccccc12)C(=O)O` [α-MLT, α-methyl-L-tryptophan] here?
Answer: within a day

Question: What about the body weight ([1]; WT C57BL/6 male mice on normal diet or high-fat diet (both diets), 1 mg/ml in drinking water) of the same molecule?
Answer: decrease in body weight

Question: And the “reversibility of effect on body weight” value ([1]; upon withdrawal of the drug)?
Answer: reversible

Question: What about the “weight-reducing effect (body weight)” value [2] of the same molecule?
Answer: active as a weight-reducing agent

Question: What about the “circulating level of glucose” value [3] of the same molecule?
Answer: significant decrease

Question: What about the “circulating level of leptin” value [3] of the same molecule?
Answer: significant decrease

Question: What about the “glucose tolerance (i.p. GTT)” value [4] of the same molecule?
Answer: better glucose tolerance

Question: What about the “weight of the abdominal fat” value [5] of the same molecule?
Answer: reduced

Question: What about the “weight of the liver” value [5] of the same molecule?
Answer: reduced

Question: What about the “hepatic steatosis (Oil-red-O neutral lipids)” value [6] of the same molecule?
Answer: almost completely prevented

Question: And the blood glucose level [7]?
Answer: decreased

Question: And the body weight [7]?
Answer: lost weight

Question: What about the liver weight [7] of the same molecule?
Answer: decreased

Question: What about the “mammary fat pad weight” value [7] of the same molecule?
Answer: decreased

Question: What about the serum leptin level [7] of the same molecule?
Answer: decreased

Question: And the body weight ([8]; 12-week-old male oblob mice on normal diet, 1 mg/ml in drinking water, 3 weeks)?
Answer: lost weight; also recorded: decreased

Question: What about the food intake ([8]; oblob male mice on normal diet, 1 mg/ml in drinking water) of the same molecule?
Answer: decreased food intake

Question: And the blood glucose [8, 11]?
Answer: lower

Question: What about the “insulin sensitivity (glucose tolerance test)” value [8, 11] of the same molecule?
Answer: improved insulin sensitivity

Question: What about the abdominal fat [8, 12] of the same molecule?
Answer: significantly reduced

Question: And the liver weight [8, 12]?
Answer: significantly reduced

Question: What about the “reversibility of effect on body weight” value ([8]; oblob mice, drug withdrawn after 3-week exposure) of the same molecule?
Answer: started gaining weight

Question: What about the “kidney function (blood urea nitrogen, creatinine)” value [9] of the same molecule?
Answer: no evidence of compromise in kidney function

Question: What about the “liver function (bilirubin, AST)” value [9] of the same molecule?
Answer: no compromise in liver function

Question: What about the AST ([9]; mean ± S.E.M, N=5) of the same molecule?
Answer: 79.5 ± 16.3 U/I

Question: And the Albumin ([9]; mean ± S.E.M, N=5)?
Answer: 1.90 ± 0.04 g/dL

Question: What about the BUN ([9]; mean ± S.E.M, N=5) of the same molecule?
Answer: 34.2 ± 2.6 mg/dL

Question: And the Creatinine ([9]; mean ± S.E.M, N=5)?
Answer: 0.30 ± 0.04 mg/dL

Question: And the Globulin ([9]; mean ± S.E.M, N=5)?
Answer: 2.35 ± 0.09 g/dL

Question: What about the Total bilirubin ([9]; mean ± S.E.M, N=5) of the same molecule?
Answer: 0.6 ± 0.1 mg/dL

Question: And the Total protein ([9]; mean ± S.E.M, N=5)?
Answer: 4.25 ± 0.06 g/dL

Question: And the “serum Cholesterol” value ([9]; mean ± S.E.M, N=5)?
Answer: 106 ± 3 mg/dL

Question: What about the “serum Triglycerides” value ([9]; mean ± S.E.M, N=5) of the same molecule?
Answer: 97 ± 17 mg/dL

Question: And the adverse effects [10]?
Answer: no noticeable adverse effects
